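Growth conditions: 96-well plates. Treatment: test compound, 48 hours, 5 concentrations. Analysis: linear interpolation between bracketing concentrations; unreached endpoints set to highest concentration. GI50: concentration for 50% inhibition of growth. TGI denotes the concentration required for complete inhibition of growth.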
Tests used:
Assay in all cases: growth of human tumour cells (NCI), 48 h
CCRF-CEM leukemia = system: CCRF-CEM leukemia
COLO 205 colon = system: COLO 205 colon
OVCAR-4 ovarian = system: OVCAR-4 ovarian
OVCAR-3 ovarian = system: OVCAR-3 ovarian
IGROV1 ovarian = system: IGROV1 ovarian
RPMI-8226 leukemia = system: RPMI-8226 leukemia
SK-MEL-2 melanoma = system: SK-MEL-2 melanoma
A549 NSCLC = system: A549 NSCLC
CAKI-1 renal = system: CAKI-1 renal
HCT-15 colon = system: HCT-15 colon

Structure (SMILES) | GI50 (CCRF-CEM leukemia) | TGI (CCRF-CEM leukemia) | GI50 (COLO 205 colon) | TGI (COLO 205 colon) | GI50 (OVCAR-4 ovarian) | TGI (OVCAR-4 ovarian) | GI50 (OVCAR-3 ovarian) | TGI (OVCAR-3 ovarian) | GI50 (IGROV1 ovarian) | TGI (IGROV1 ovarian) | GI50 (RPMI-8226 leukemia) | TGI (RPMI-8226 leukemia) | GI50 (SK-MEL-2 melanoma) | TGI (SK-MEL-2 melanoma) | GI50 (A549 NSCLC) | TGI (A549 NSCLC) | GI50 (CAKI-1 renal) | TGI (CAKI-1 renal) | GI50 (HCT-15 colon) | TGI (HCT-15 colon)
C[C@]12CCc3nc(Nc4ccc(O)cc4)sc3C1=CC[C@@H]1[C@@H]2CC[C@]2(C)/C(=N/NC(N)=S)CC[C@@H]12 | 0.629 µM | > 100 µM | 1.56 µM | 3.39 µM | 1.6 µM | 3.43 µM | 1.56 µM | 3.12 µM | 1.45 µM | 3 µM | 1.49 µM | 5.8 µM | 1.69 µM | 3.52 µM | 0.498 µM | 1.86 µM | 1.59 µM | 3.4 µM | 1.24 µM | 3.03 µM
N#CN1CC[C@H](C(=O)Nc2ncc(-c3ccccc3)s2)C1 | 0.271 µM | > 100 µM | 0.195 µM | 0.449 µM | 0.673 µM | 5.59 µM | 0.346 µM | 1.44 µM | 0.449 µM | 5.59 µM | 0.27 µM | 0.854 µM | 0.274 µM | 0.726 µM | 1.9 µM | 8.61 µM | 1.65 µM | 4.26 µM | 0.312 µM | 3.65 µM
O=[N+]([O-])c1cccnc1S(=O)(=O)c1ccccc1 | – | > 100 µM | – | 11 µM | – | 17.1 µM | – | 3.84 µM | – | 20.3 µM | – | 36.4 µM | – | 31.1 µM | – | 40.4 µM | – | 6.98 µM | – | 21.7 µM
CC(C)(C)O/N=C/c1cc(NC(=S)c2ccccc2)ccc1Cl | – | 74.5 µM | – | 27.8 µM | – | 74.7 µM | – | 35.3 µM | – | 27.1 µM | – | 41 µM | – | 39.6 µM | – | 35.1 µM | – | 72.4 µM | – | 32.1 µM
O=C(Nc1ccccc1C(=O)NC(=O)c1ccccc1NC(=O)c1ccccc1)c1ccccc1 | – | 16.4 µM | – | 2.87 µM | – | 18 µM | – | 13.4 µM | – | 5.93 µM | – | 8.23 µM | – | 3.93 µM | – | 23.1 µM | – | 29.1 µM | – | 34.3 µM
CNC(=O)OCc1nc(SSc2nc(COC(=O)NC)c(COC(=O)NC)n2C)n(C)c1COC(=O)NC | – | > 100 µM | – | > 100 µM | – | > 100 µM | – | > 100 µM | – | > 100 µM | – | > 100 µM | – | > 100 µM | – | > 100 µM | – | > 100 µM | – | > 100 µM
Oc1cn(-c2ccc(Cl)cc2)nc1-c1n[nH]c(=S)n1-c1ccc(F)cc1 | 7.29 µM | > 100 µM | 61.4 µM | > 100 µM | 45.4 µM | > 100 µM | 22 µM | > 100 µM | 7.12 µM | 24.1 µM | 22.2 µM | > 100 µM | 34 µM | > 100 µM | 13.2 µM | 56 µM | 40.5 µM | > 100 µM | 11.3 µM | > 100 µM
O=c1[nH]c(=S)[nH]c(O)c1/C=C1\C=Nc2ccccc21 | 2.12 µM | 6.47 µM | 3.77 µM | 18.3 µM | 21.2 µM | > 100 µM | 1.44 µM | 3.13 µM | 1.02 µM | 5.55 µM | 2.34 µM | 6.49 µM | 19.5 µM | 59 µM | 37.2 µM | > 100 µM | 3.61 µM | 20.3 µM | 2.78 µM | 8.07 µM
Cn1cc(-c2ccc3ncc(-c4ccc(CC(=O)Nc5cc(C(C)(C)C)nn5C)cc4)cc3c2)cn1 | 0.81 µM | 16.6 µM | 2.78 µM | > 20 µM | 0.687 µM | 5.03 µM | 1.4 µM | > 20 µM | 0.568 µM | > 20 µM | 0.64 µM | 4.07 µM | 0.789 µM | 7.14 µM | 1.44 µM | > 20 µM | 0.541 µM | 7.15 µM | 0.793 µM | > 20 µM
COCc1cc2c(s1)C(=O)C1=C(C2=O)C2(C=C(Br)C(=O)C(Br)=C2)CCN1 | – | 16.7 µM | – | 12.4 µM | – | 3.57 µM | – | 11.8 µM | – | 19.3 µM | – | 19.8 µM | – | 15.2 µM | – | 19.4 µM | – | 34.6 µM | – | 14.7 µM
CCCCCCCCCCCCCCCC(=O)OCC1OC(n2cc(F)c(=O)[nH]c2=O)C(NC(=O)OCc2ccccc2)C(O)C1O (stereo not given) | – | 30 µM | – | 34 µM | – | 42 µM | – | 33.8 µM | – | 46.6 µM | – | 39.3 µM | – | 32 µM | – | 38.5 µM | – | 33.8 µM | – | 34.4 µM
